Columns and labels:
yellow nutsedge = assay: Test E preemergence; type: in vivo, Cyperus esculentus; details: for Nutsedge, Yellow plant response rating: scale 0 to 100 (0 no effect, 100 complete control); for Plant response rating, Nutsedge, Yellow: scale 0 to 100, 0 no effect, 100 complete control
Source text: (§1) Seeds of plant species selected from corn (Zea mays), soybean (Glycine max), velvetleaf (Abutilon theophrasti), lambsquarters (Chenopodium album), wild poinsettia (Euphorbia heterophylla), palmer pigweed (Amaranthus palmeri), waterhemp (common waterhemp, Amaranthus rudis), surinam grass (Brachiaria decumbens), large (Lg) crabgrass (Digitaria sanguinalis), Brazilian crabgrass (Digitaria horizontalis), fall panicum (Panicum dichotomiflorum), giant foxtail (Setaria faberii), green foxtail (Setaria viridis), goosegrass (Eleusine indica), johnsongrass (Sorghum halepense), ragweed (common ragweed, Ambrosia elatior), barnyardgrass (Echinochloa crus-galli), sandbur (southern sandbur, Cenchrus echinatus), arrowleaf sida (Sida rhombifolia), Italian ryegrass (Lolium multiflorum), dayflower (Virginia (VA) dayflower, Commelina virginica), field bindweed (Convolvulus arvensis), morningglory (Ipomoea coccinea), nightshade (eastern black nightshade, Solanum ptycanthum), kochia (Kochia scoparia), yellow nutsedge (Cyperus esculentus), cocklebur (common cocklebur, Xanthium strumarium), smartweed (ladysthumb smartweed, and hairy beggarticks (Bidens pilosa), were planted into a silt loam soil and treated preemergence with test chemicals formulated in a non-phytotoxic solvent mixture which included a surfactant.
(§2) At the same time, plants from these crop and weed species and also horseweed (Canada horseweed, Conyza canadensis), waterhemp_RES1, (ALS & Triazine resistant common waterhemp, Amaranthus rudis), and waterhemp_RES2, (ALS & HPPD resistant common waterhemp, Amaranthus rudis) were planted in pots containing Redi-Earth® planting medium (Scotts Company, 14111 Scottslawn Road, Marysville, Ohio 43041) comprising spaghnum peat moss, vermiculite, wetting agent and starter nutrients were treated with postemergence applications of test chemicals formulated in the same manner. Plants ranged in height from 2 to 18 cm for postemergence treatments (1- to 4-leaf stage). Treated plants and controls were maintained in a greenhouse for 14 to 21 days, after which time all species were compared to controls and visually evaluated. Plant response ratings, summarized in Table E, are based on a scale of 0 to 100 where 0 is no effect and 100 is complete control. A dash (-) response means no test result.

ragweed [1] = assay: Test E preemergence; type: in vivo, Ambrosia elatior; details: for Ragweed plant response rating: scale 0 to 100 (0 no effect, 100 complete control); for Plant response rating, Ragweed: scale 0 to 100, 0 no effect, 100 complete control
Source text: as §1, §2

barnyardgrass = assay: Test E preemergence; type: in vivo, Echinochloa crus-galli; details: for Barnyardgrass plant response rating: scale 0 to 100 (0 no effect, 100 complete control); for Plant response rating, Barnyardgrass: scale 0 to 100, 0 no effect, 100 complete control
Source text: as §1, §2

green foxtail = assay: Test E preemergence; type: in vivo, Setaria viridis; details: for Foxtail, Green plant response rating: scale 0 to 100 (0 no effect, 100 complete control); for Plant response rating, Foxtail, Green: scale 0 to 100, 0 no effect, 100 complete control
Source text: as §1, §2

large (Lg) crabgrass = assay: Test E preemergence; type: in vivo, Digitaria sanguinalis; details: for Crabgrass, Large plant response rating: scale 0 to 100 (0 no effect, 100 complete control); for Plant response rating, Crabgrass, Large: scale 0 to 100, 0 no effect, 100 complete control
Source text: as §1, §2

kochia = assay: Test A preemergence; type: in vivo, Kochia scoparia
Outline: (§3)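 Visual 0–100 rating (100 = complete control) taken about 10 d post-treatment relative to untreated checks. Preemergence: directed soil spray on sown loam/sand pots. Postemergence: seedlings 2–10 cm, 1–2 leaf. Non-phytotoxic solvent formulation with surfactant.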

ragweed [2] = assay: Test A preemergence; type: in vivo, Ambrosia elatior
Outline: as §3

Italian ryegrass = assay: Test A preemergence; type: in vivo, Lolium multiflorum
Outline: as §3

blackgrass = assay: Test A postemergence; type: in vivo, Alopecurus myosuroides
Outline: as §3

[3] = 125 g ai/ha, 0 to 100 scale where 0 is no effect and 100 is complete control
[4] = 500 g ai/ha, 0 to 100 scale, 0 no effect, 100 complete control, approx. 10 days
[5] = 500 g ai/ha, 0 to 100 scale, 0 no effect, 100 complete control
[6] = 31 g ai/ha, 0 to 100 scale, 0 no effect, 100 complete control
[7] = 500 g ai/ha, 0 to 100 scale where 0 is no effect and 100 is complete control
[8] = 1000 g ai/ha, 0 to 100 scale, 0 no effect, 100 complete control, approx. 10 days
[9] = 1000 g ai/ha, 0 to 100 scale, 0 no effect, 100 complete control
[10] = 31 g ai/ha, 0 to 100 scale where 0 is no effect and 100 is complete control, visual, approximately 10 days
[11] = 125 g ai/ha, 0 to 100 scale, 0 no effect, 100 complete control

FC(F)(F)c1cnn(-c2ccccc2Oc2ncc(Cl)cn2)c1 [Compound 16]
Nutsedge, Yellow plant response rating (yellow nutsedge; 16 g ai/ha): 0
Nutsedge, Yellow plant response rating (yellow nutsedge; 31 g ai/ha): 0
Nutsedge, Yellow plant response rating (yellow nutsedge; 62 g ai/ha): 0
Plant response rating, Nutsedge, Yellow (yellow nutsedge; 125 g ai/ha): 35
Plant response rating, Nutsedge, Yellow (yellow nutsedge; 250 g ai/ha): 35
Ragweed plant response rating (ragweed [1]; 16 g ai/ha): 0
Ragweed plant response rating (ragweed [1]; 31 g ai/ha): 0
Ragweed plant response rating (ragweed [1]; 62 g ai/ha): 0
Plant response rating, Ragweed (ragweed [1]; 125 g ai/ha): 30
Plant response rating, Ragweed (ragweed [1]; 250 g ai/ha): 65
Barnyardgrass plant response rating (barnyardgrass; 16 g ai/ha, preemergence): 0
Barnyardgrass plant response rating (barnyardgrass; 31 g ai/ha, preemergence): 0
Plant response rating, Barnyardgrass (barnyardgrass; Preemergence, 62 g ai/ha): 0
Plant response rating, Barnyardgrass (barnyardgrass; preemergence, 125 g ai/ha): 10
Plant response rating, Barnyardgrass (barnyardgrass; preemergence, 250 g ai/ha): 40
Foxtail, Green plant response rating (green foxtail; 16 g ai/ha): 0
Foxtail, Green plant response rating (green foxtail; 31 g ai/ha): 20
Foxtail, Green plant response rating (green foxtail; 62 g ai/ha): 70
Plant response rating, Foxtail, Green (green foxtail; 125 g ai/ha): 90
Plant response rating, Foxtail, Green (green foxtail; 250 g ai/ha): 100
Crabgrass, Large plant response rating (large (Lg) crabgrass; 16 g ai/ha): 0
Crabgrass, Large plant response rating (large (Lg) crabgrass; 31 g ai/ha): 0
Crabgrass, Large plant response rating (large (Lg) crabgrass; 62 g ai/ha): 65
Plant response rating, Crabgrass, Large (large (Lg) crabgrass; 125 g ai/ha): 80
Plant response rating, Crabgrass, Large (large (Lg) crabgrass; 250 g ai/ha): 100

FCc1cccc(Oc2ncc(Cl)cn2)c1-n1cc(Br)cn1 [Compound 83]
Plant response rating, Kochia (kochia; [3]): 100
Kochia plant response rating (kochia; [4]): 100
Plant response rating, Ragweed (ragweed [2]; [3]): 20
Ragweed plant response rating (ragweed [2]; [4]): 50
Plant response rating, Ryegrass, Italian (Italian ryegrass; [3]): 50
Ryegrass, Italian plant response rating (Italian ryegrass; [4]): 60
Plant response rating, Blackgrass (blackgrass; [3]): 100
Plant response rating, Blackgrass (blackgrass; [5]): 100

CCOc1cn(-c2c(Br)cccc2Oc2ncc(Cl)cn2)nn1 [Compound 84]
Plant response rating, Kochia (kochia; [3]): 100
Kochia plant response rating (kochia; [4]): 100
Plant response rating, Ragweed (ragweed [2]; [3]): 10
Ragweed plant response rating (ragweed [2]; [4]): 40
Plant response rating, Ryegrass, Italian (Italian ryegrass; [3]): 0
Ryegrass, Italian plant response rating (Italian ryegrass; [4]): 20
Plant response rating, Blackgrass (blackgrass; [3]): 80
Plant response rating, Blackgrass (blackgrass; [5]): 100

FCc1cccc(Oc2ncc(F)cn2)c1-n1cc(C(F)(F)F)cn1 [Compound 118]
Kochia plant response rating (0 to 100 scale) (kochia; 31 g ai/ha): 100
Plant response rating, Kochia (kochia; [3]): 100
Ragweed plant response rating (0 to 100 scale) (ragweed [2]; 31 g ai/ha): 50
Plant response rating, Ragweed (ragweed [2]; [3]): 90
Ryegrass, Italian plant response rating (0 to 100 scale) (Italian ryegrass; 31 g ai/ha): 0
Plant response rating, Ryegrass, Italian (Italian ryegrass; [3]): 50
Plant response rating, Blackgrass (blackgrass; [6]): 60
Plant response rating, Blackgrass (blackgrass; [3]): 90

FCc1cccc(Oc2ncc(Br)cn2)c1-n1cc(C(F)(F)F)cn1 [Compound 120]
Kochia plant response rating (0 to 100 scale) (kochia; 31 g ai/ha): 20
Plant response rating, Kochia (kochia; [3]): 90
Ragweed plant response rating (0 to 100 scale) (ragweed [2]; 31 g ai/ha): 0
Plant response rating, Ragweed (ragweed [2]; [3]): 0
Ryegrass, Italian plant response rating (0 to 100 scale) (Italian ryegrass; 31 g ai/ha): 0
Plant response rating, Ryegrass, Italian (Italian ryegrass; [3]): 30
Plant response rating, Blackgrass (blackgrass; [6]): 60
Plant response rating, Blackgrass (blackgrass; [3]): 80

Clc1cnc(Oc2cccc(Br)c2-n2cc(Br)nn2)nc1 [Compound 129]
Plant response rating, Kochia (kochia; [3]): 100
Kochia plant response rating (kochia; [7]): 100
Plant response rating, Ragweed (ragweed [2]; [3]): 30
Ragweed plant response rating (ragweed [2]; [7]): 80
Plant response rating, Ryegrass, Italian (Italian ryegrass; [3]): 10
Ryegrass, Italian plant response rating (Italian ryegrass; [7]): 30
Blackgrass plant response rating (blackgrass; [3]): 70
Plant response rating, Blackgrass (blackgrass; [7]): 90

FC(F)(F)Sc1cnn(-c2ccccc2Oc2ncc(Cl)cn2)c1 [Compound 132, 5-chloro-2-[2-[4-(trifluoromethylthio)-1H-pyrazol-1-yl]phenoxy]pyrimidine]
Plant response rating, Kochia (kochia; [3]): 100
Kochia plant response rating (kochia; [7]): 100
Plant response rating, Ragweed (ragweed [2]; [3]): 0
Ragweed plant response rating (ragweed [2]; [7]): 10
Plant response rating, Ryegrass, Italian (Italian ryegrass; [3]): 30
Ryegrass, Italian plant response rating (Italian ryegrass; [7]): 40
Blackgrass plant response rating (blackgrass; [3]): 60
Plant response rating, Blackgrass (blackgrass; [7]): 90

Cc1cnc(Oc2cccc(C#N)c2-n2cc(I)cn2)nc1 [Compound 136]
Plant response rating, Kochia (kochia; [3]): 90
Kochia plant response rating (kochia; [7]): 100
Plant response rating, Ragweed (ragweed [2]; [3]): 80
Ragweed plant response rating (ragweed [2]; [7]): 100
Plant response rating, Ryegrass, Italian (Italian ryegrass; [3]): 0
Ryegrass, Italian plant response rating (Italian ryegrass; [7]): 30
Blackgrass plant response rating (blackgrass; [3]): 20
Plant response rating, Blackgrass (blackgrass; [7]): 100

COc1cnn(-c2c(C#N)cccc2Oc2ncc(Cl)cn2)c1 [Compound 137]
Plant response rating, Kochia (kochia; [3]): 90
Kochia plant response rating (kochia; [7]): 100
Plant response rating, Ragweed (ragweed [2]; [3]): 30
Ragweed plant response rating (ragweed [2]; [7]): 60
Plant response rating, Ryegrass, Italian (Italian ryegrass; [3]): 0
Ryegrass, Italian plant response rating (Italian ryegrass; [7]): 20
Blackgrass plant response rating (blackgrass; [3]): 20
Plant response rating, Blackgrass (blackgrass; [7]): 90

CCCOc1cnn(-c2c(C#N)cccc2Oc2ncc(Cl)cn2)c1 [Compound 150]
Plant response rating, Kochia (kochia; [3]): 100
Kochia plant response rating (kochia; [7]): 100
Plant response rating, Ragweed (ragweed [2]; [3]): 30
Ragweed plant response rating (ragweed [2]; [7]): 70
Plant response rating, Ryegrass, Italian (Italian ryegrass; [3]): 20
Ryegrass, Italian plant response rating (Italian ryegrass; [7]): 50
Blackgrass plant response rating (blackgrass; [3]): 100
Plant response rating, Blackgrass (blackgrass; [7]): 100

FCc1cn(-c2c(F)cccc2Oc2ncc(Cl)cn2)nn1 [Compound 154]
Kochia plant response rating (kochia; [8]): 100
Ragweed plant response rating (ragweed [2]; [8]): 100
Ryegrass, Italian plant response rating (Italian ryegrass; [8]): 90
Plant response rating, Blackgrass (blackgrass; [9]): 90

Fc1cccc(Oc2ncc(Cl)cn2)c1-n1cc(C2CC2)nn1 [Compound 155]
Kochia plant response rating (kochia; [8]): 100
Ragweed plant response rating (ragweed [2]; [8]): 90
Ryegrass, Italian plant response rating (Italian ryegrass; [8]): 60
Plant response rating, Blackgrass (blackgrass; [9]): 100

N#Cc1cccc(Oc2ncc(Cl)cn2)c1-n1cnc(C(F)(F)F)c1 [Compound 252, 3-[(5-chloro-2-pyrimidinyl)oxy]-2-[4-(trifluoromethyl)-1H-imidazol-1-yl]benzonitrile]
Plant response rating, Kochia (kochia; [10]): 80
Kochia plant response rating (0 to 100 scale) (kochia; 125 g ai/ha): 100
Kochia plant response rating (kochia; [7]): 100
Plant response rating, Ragweed (ragweed [2]; [10]): 20
Ragweed plant response rating (0 to 100 scale) (ragweed [2]; 125 g ai/ha): 70
Ragweed plant response rating (ragweed [2]; [7]): 100
Plant response rating, Ryegrass, Italian (Italian ryegrass; [10]): 20
Ryegrass, Italian plant response rating (0 to 100 scale) (Italian ryegrass; 125 g ai/ha): 20
Ryegrass, Italian plant response rating (Italian ryegrass; [7]): 90
Plant response rating, Blackgrass (blackgrass; [6]): 10
Plant response rating, Blackgrass (blackgrass; [11]): 60
Plant response rating, Blackgrass (blackgrass; [7]): 100

Fc1cccc(Oc2ncc(Cl)cn2)c1-n1cc(OCC(F)(F)F)cn1 [Compound 270]
Plant response rating, Kochia (kochia; [10]): 80
Kochia plant response rating (0 to 100 scale) (kochia; 125 g ai/ha): 100
Plant response rating, Ragweed (ragweed [2]; [10]): 0
Ragweed plant response rating (0 to 100 scale) (ragweed [2]; 125 g ai/ha): 20
Plant response rating, Ryegrass, Italian (Italian ryegrass; [10]): 0
Ryegrass, Italian plant response rating (0 to 100 scale) (Italian ryegrass; 125 g ai/ha): 10
Plant response rating, Blackgrass (blackgrass; [6]): 10
Plant response rating, Blackgrass (blackgrass; [11]): 40

Reference: patent US9695155B2, “Herbicidal substituted pyrimidinyloxy benzene compounds” (E. I. DU PONT DE NEMOURS AND COMPANY, priority 2013, dated 2017)
